Data: PMC12476894, “Identification of α‑Azacyclic Acetamide-Based Inhibitors of P. falciparum Na^+ Pump (PfATP4) with Fast-Killing Asexual Blood-Stage Antimalarial Activity by Phenotypic Screening” (ACS Infectious Diseases, 2025)
Converted amounts (≈) assume the structure as drawn. Where two headings read alike, the source gives them in different places.

Assays:
[1] = tested on: P. falciparum 3D7 parasites (Pf3D7); assay: 72 h SYBR Green growth inhibition, ABS P. falciparum 3D7 (Phillips Lab); format: cell-based, Plasmodium falciparum; settings: Plasmodium falciparum, 3D7; 72 h SYBR Green assay; mean ± SEM (n)
[2] = tested on: P. falciparum Dd2 (PfDd2) parasites; assay: 72 h SYBR Green growth inhibition, ABS P. falciparum Dd2 (Phillips Lab); format: cell-based, Plasmodium falciparum; settings: Plasmodium falciparum
[3] = tested on: P. falciparum NF54^luc parasites; assay: Luciferase reporter (LR) / BRRoK assay, PfNF54^luc; format: cell-based, Plasmodium falciparum; settings: Plasmodium falciparum, NF54, Hec50; luciferase reporter, 6 h
PfD10 attB = assay: 72 h SYBR Green growth inhibition, PfD10 attB; format: cell-based; settings: Plasmodium falciparum; 72 h SYBR Green assay
[4] = Human HepG2 cytotoxicity assay (CellTiter Glo); format: cell-based; settings: HepG2 cells
in vitro = in vitro ADME; settings: human liver microsomes, 1 µM compound, 0.4 mg/mL protein
[5] = tested on: Dd2 PfATP4^F917L mutant clones; assay: 72 h SYBR Green growth inhibition, 2- or 3-selected Dd2 clones with PfATP4 F917L (Phillips Lab); format: cell-based, Plasmodium falciparum; settings: for EC50: Plasmodium falciparum
Method: (§1) To confirm the MOA for the α-azacyclic acetamides against P. falciparum and to obtain potential information about whether or not they bind PfATP4 at an overlapping site with that of KAE609, we undertook resistance selections using PfDd2 parasites using the published cycling drug selection method. , α-Azacyclic acetamides 2 and 3 were chosen as representative examples of the pyrrole- and indole-based series, respectively. […] Additional cycles were performed at 20 × EC50, until resistant parasites were detected based on a fold change in EC50 compared to the parental clonal Dd2 line (Table S3). Resistant parasites were detected in the 2-selections in all 4 flasks after 4 pulses and for 3-selections in 3 flasks after 5 pulses. Clonal lines were generated from each flask, and one clone per flask was selected for WGS and EC50 determination (Tables S4 and S5). WGS analysis identified two single point mutations in PfATP4 that were not present in the original clonal Dd2 parasite line (Tables and S4). P412L was found in three of four flasks containing 2-selected resistance clones, and F917L was identified in all three flasks containing 3-selected clones and in the fourth flask containing 2-selected clones (Table S4). PfATP4 mutations identified by the WGS analysis in parasite lines were verified by PCR of the pfatp4 gene, followed by Sanger sequencing (Figures S5, S6 and Table S6). An additional protein coding gene (ribosomal protein S8e) was mutated in the 2-selections. However, this mutation was identified in only one of four sequenced clones and is therefore unlikely to be related to resistance to 2 (Figure S7). All three resistant clones derived from the 3-selections harbored an identical mutation in a gene (pfcpu) encoding a conserved protein of unknown function, which was absent in the parental line (Figure S8).
ABS P. falciparum 3D7, Dd2 or PfNF54^luc parasites (BEI resources) were cultured in RPMI 1640 medium (Millipore Sigma), supplemented with 25 mM HEPES, 0.5% Albumax-I (Thermo Scientific), 23 mM sodium bicarbonate, 92 μM hypoxanthine, and 10 μg/mL gentamicin sulfate at 37 °C, 5% CO2, using deidentified O^+ red blood cells (BioIVT) as previously described. − Growth inhibition assays were conducted in 96 well plate format using the SYBR Green or luciferase reporter assay depending on the strain with modifications as described , (see Supporting Information for a detailed description). Details for the luciferase reporter assay are described below under the BRRoK assay section.
EC50 and CC50 values were determined by nonlinear regression performed in GraphPad Prism Version 10. Unless otherwise specified, data were fitted to the log(inhibitor) vs response–variable slope with four parameters equation. […] For mutant cell lines and compound combinations where bottom plateau of zero growth was not reached, the bottom of the curve was defined at 0% based on background values obtained for parental Dd2 from the same study.
Resistant Dd2 parasites were selected using a high-pressure intermittent selection protocol using a previously described method. Selections were set up using 4 flasks per compound starting with approximately 3 × 10^9 parasites per flask (80 mL per flask, 4% hematocrit, 3% parasitemia at the beginning of each pulse, mostly ring-stage parasites via previous sorbitol synchronization. Pulse 1 and 2 (48 h) were conducted at 10xEC50, and subsequent pulses were conducted at 20xEC50. Parasites cleared within 48 h under these conditions. 3-Selections used a total of 4 pulses, while 2-selections required 5 pulses before resistant parasites emerged (Table S3). Culture media was replenished daily for a week after each pulse, then every 2 days with weekly replenishment of blood. Cultures were monitored by microscopy until recrudescence. Clonal parasites were obtained from each flask by limiting dilution and maintained in drug free RPMI-1640 media prior to being analyzed for EC50 shifts. […]

Dd2^P412L (PfATP4^P412L) = assay: Drug susceptibility assay for cross-resistance profiling (Fidock Lab), P412L; format: cell-based, Plasmodium falciparum; settings: Table 3 data set; for EC50: Plasmodium falciparum, DD2, 15-selected line
PfDd2 parasites = assay: Resistance selection by drug pulses, time to recrudescence; format: cell-based, Plasmodium falciparum
Method: as §1
Resistant Dd2 parasites were selected using a high-pressure intermittent selection protocol using a previously described method. Selections were set up using 4 flasks per compound starting with approximately 3 × 10^9 parasites per flask (80 mL per flask, 4% hematocrit, 3% parasitemia at the beginning of each pulse, mostly ring-stage parasites via previous sorbitol synchronization. Pulse 1 and 2 (48 h) were conducted at 10xEC50, and subsequent pulses were conducted at 20xEC50. Parasites cleared within 48 h under these conditions. 3-Selections used a total of 4 pulses, while 2-selections required 5 pulses before resistant parasites emerged (Table S3). Culture media was replenished daily for a week after each pulse, then every 2 days with weekly replenishment of blood. Cultures were monitored by microscopy until recrudescence. Clonal parasites were obtained from each flask by limiting dilution and maintained in drug free RPMI-1640 media prior to being analyzed for EC50 shifts. Established clonal lines were aliquoted and stored at −80 °C after suspension in Glycerolyte 57 solution (Baxter Cat no 4A7831).

[6] = tested on: P. falciparum NF54^luc parasites; assay: Luciferase reporter (LR) / BRRoK assay, PfNF54^luc; format: cell-based; settings: Plasmodium falciparum, NF54, Hec50, 72 h
physchem = settings: kinetic from dmso stock
[7] = tested on: Pf3D7 trophozoites, pHcyt (PfATP4 and other plasma membrane transporters); assay: P. falciparum pH fingerprint assay; settings: 5 μM, compared with KAE609 50 nM
[8] = DD2, 72 h, read-out: PfDd2 EC50
[9] = DD2, read-out: EC50, 2-resistant Flask 1 Clone B6
[10] = DD2, read-out: EC50, 3-resistant Flask 2 Clone D10
[11] = DD2, read-out: EC50, 3-resistant Flask 3 Clone D8
[12] = DD2, read-out: EC50, 3-resistant Flask 4 Clone B3
[13] = DD2, read-out: EC50, 3-selected flask #3 clone D8

Row | Compound | EC50 [1] [nM] | EC50 [2, 8] [nM] | EC50 [3] [nM] | EC50 (PfD10 attB) [nM] | CC50 at 96 h [4] [nM] | microsomal CLint (in vitro) [µL/min/mg] | EC50 [5, 9] [nM] | EC50 [5, 10] [nM] | EC50 [5, 11] [nM] | EC50 [5, 12] [nM] | EC50 [5, 13] [nM] | Fold EC50 change compared to WT Dd2, 3-selected flask #3 clone D8 [5] [fold] | EC50 (Dd2^P412L (PfATP4^P412L)) [nM] | EC50 fold-change vs Dd2-B2, Dd2^P412L (Dd2^P412L (PfATP4^P412L)) [fold] | Time to Recrudescence (PfDd2 parasites; Pulse 1, 10×EC50, Flasks #1-4) [days] | Time to Recrudescence (PfDd2 parasites; Pulse 2, 10×EC50, Flasks #1-4) [days] | Time to Recrudescence (PfDd2 parasites; Pulse 3, 20×EC50, Flasks #1-4) [days] | EC50 [6] [nM] | solubility (physchem; pH 2, simulated gastric fluid) [µM] | solubility (physchem; pH 6.5, aqueous buffer) [µM] | also measured
1 | Cc1ccnc(NC(=O)Cn2cccc2-c2nc(-c3ccccc3)cs2)c1 [compound 2, N-(4-methylpyridin-2-yl)-2-(2-(4-phenylthiazol-2-yl)-1H-pyrrol-1-yl)acetamide] | 830 ± 71 | 830 ± 48 | 1100 ± 90 | 1200 | > 50000 | > 866 | 9600 ± 2000 | > 10000 | > 10000 | > 10000 | 14000 ± 780 | 17 | 34000 ± 1300 | 89 | 8 | 6 | 7 | 470 ± 51 | 99 (≈ 37.1 µg/mL) | 3.2 (≈ 1.2 µg/mL) | EC50 ([2]; DD2, read-out: EC50, Dd2 Parent (clone B8)): 780 nM; Time to Recrudescence (PfDd2 parasites; Pulse 4, 20×EC50, Flasks #1-4): 3 days; Time to Recrudescence (PfDd2 parasites; Pulse 5, 20×EC50, Flasks #1-4, after pulse): 2 days; pH fingerprint, +Glucose + CMA condition (in words) [7]: maximal/near-maximal inhibition of PfATP4
2 | Cc1nn(CCNC(=O)Cn2c(C)c(C#N)c3ccccc32)c(C)c1Cl [compound 3, N-(2-(4-chloro-3,5-dimethyl-1H-pyrazol-1-yl)ethyl)-2-(3-cyano-2-methyl-1H-indol-1-yl)acetamide] | 1100 ± 71 | 1100 ± 72 | 1600 ± 71 | 1300 | > 50000 | > 866 | > 10000 | > 10000 | > 10000 | > 10000 | 28000 ± 1600 | 25 | 4100 ± 450 | 7.6 | 5 | 4 | 4 | 720 ± 3.1 | 25 (≈ 9.25 µg/mL) | 25 (≈ 9.25 µg/mL) | EC50 ([2]; DD2, read-out: EC50, Dd2 Parent (clone G9)): 990 nM; Time to Recrudescence (PfDd2 parasites; Pulse 4, 20×EC50, Flask #1): 6 days; Time to Recrudescence (PfDd2 parasites; Pulse 4, 20×EC50, Flasks 2 - 4): 2 days; pH fingerprint, +Glucose + CMA condition (in words) [7]: submaximal inhibition
